Values of other authors as cited in patent publication US20070071689A1, “Advantageous combination for inhalation of nacystelyn and bronchodilators” (GALEPHAR M/F, priority 2003, published 2007).

Tests used:
[1] = administration via the inhalation route
cystic fibrosis patients = conditions: in comparison to placebo
[2] = in comparison to ACC

Compound: CC(=O)N[C@@H](CS)C(=O)O [ACC, acetylcysteine]
- bronchospasms (side effects) [1]: can be responsible for reflex bronchospasms

Compound: L-Lysine N-Acetylcysteinate [NAL]
- number and severity of lung exacerbations (cystic fibrosis patients): significantly decrease the number and severity of lung exacerbations
- active dose [2]: active at lower doses than ACC
- mucolytic and antioxidant activity [2]: superior to the activity of ACC
